According to PubChem BioAssay (NCI):
Where “and” joins values, the source holds several entries; their conditions need not be identical. Equal values may be shown once.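 Following 48 hours of exposure in 96-well plates, responses at five concentrations were used to interpolate endpoints linearly. At the GI50, growth is halved. The concentration for full growth arrest is given as TGI.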 *1 amine or outer side, *2 acyl side, *3 side chain or, on linkers, in order; H or OH if unused. Where a SMILES comes first, the peptide text is derived from it. Bridges are numbered along the chain shown (N, C = ends). Roman numbers before positions name the chains, in order. X23 = CCCCCCCCCCCCCCC(=O)NC(CCCCN[*:2])C(=O)CN1CCCC1C(=O)[*:1]

Legend:
Assay in all cases: NCI tumour cell line growth inhibition, 48 h
[1] = test system: A549 NSCLC
[2] = test system: CAKI-1 renal
[3] = test system: COLO 205 colon
[4] = test system: HCT-15 colon
[5] = test system: HOP-62 NSCLC
[6] = test system: HT29 colon
[7] = test system: SK-MEL-28 melanoma
[8] = test system: SK-OV-3 ovarian
[9] = test system: SR leukemia
[10] = test system: MDA-N

SMILES: O=C1NC2(NC(=O)C1=O)Nc1ccccc1S2
- TGI [1]: > 100 µM
- TGI [2]: > 100 µM
- TGI [3]: > 54.9 µM
- TGI [4]: > 59.5 µM
- TGI [5]: > 100 µM
- TGI [6]: > 100 µM
- TGI [7]: > 100 µM
- TGI [8]: > 100 µM
- TGI [9]: 61.9 µM

SMILES: O=CN(O)CC(=O)O.[Ni]
- GI50 [2]: > 100 µM
- TGI [2]: > 100 µM
- TGI [3]: > 100 µM
- TGI [4]: > 100 µM
- TGI [5]: > 100 µM
- TGI [6]: > 100 µM
- TGI [10]: > 100 µM
- TGI [7]: > 100 µM
- TGI [8]: > 100 µM
- TGI [9]: > 100 µM

SMILES: COc1cccc2c1C(=O)c1c(O)c3c(c(O)c1C2=O)C[C@@](O)(C(C)=O)C[C@@H]3OC1CC(N(C)C)C(O)C(C)O1 (stereo not given in full)
- GI50 [1]: 0.0816 µM and 0.035 µM
- TGI [1]: 0.423 µM and 1.65 µM
- TGI [2]: 0.56 µM and 0.593 µM
- GI50 [3]: 0.0133 µM
- GI50 [4]: 0.0211 µM
- GI50 [5]: 0.117 µM and < 0.0167 µM
- GI50 [6]: 0.00516 µM
- TGI [6]: 5.91 µM
- TGI [10]: 0.00154 µM
- GI50 [7]: 0.0475 µM
- GI50 [8]: 0.144 µM and 0.115 µM
- TGI [8]: 3.17 µM and 3.85 µM
- GI50 [9]: 0.00237 µM

SMILES: Nc1nccc2c1ncn2C1C=C(CO)C(O)C1O (stereo not given)
- GI50 [1]: > 1000 µM
- TGI [1]: > 1000 µM
- GI50 [3]: 7.35 µM
- TGI [3]: > 1000 µM
- GI50 [4]: 226 µM
- TGI [4]: > 1000 µM
- GI50 [5]: 0.408 µM
- TGI [5]: 89.9 µM
- GI50 [6]: 0.816 µM
- TGI [6]: > 1000 µM
- GI50 [7]: 0.852 µM
- TGI [7]: > 1000 µM
- GI50 [8]: > 1000 µM
- TGI [8]: > 1000 µM

SMILES: CC(=O)C1=C(C)N(c2ccc(C)cc2)C2(O)C=CC(=O)C3=C(O)c4ccccc4C(=O)C312 (stereo not given)
- TGI [1]: > 100 µM
- TGI [2]: 35.8 µM
- TGI [3]: > 100 µM
- TGI [4]: > 100 µM
- TGI [5]: > 100 µM
- TGI [6]: 15.7 µM
- TGI [7]: 34.5 µM
- TGI [8]: > 100 µM
- TGI [9]: > 100 µM

SMILES: OCCSCc1cc(Cl)cc(Cl)c1O
- TGI [1]: > 100 µM
- TGI [2]: > 100 µM
- TGI [3]: > 100 µM
- TGI [4]: > 100 µM
- TGI [5]: > 100 µM
- TGI [6]: > 100 µM
- TGI [10]: > 100 µM
- TGI [7]: > 100 µM
- TGI [8]: > 100 µM

SMILES: NS(=O)(=O)c1ccc(N=Nc2ccc(O)c(O)c2)cc1
- TGI [1]: 48.7 µM
- TGI [2]: > 100 µM
- TGI [3]: 40.3 µM
- TGI [4]: 12.6 µM
- TGI [5]: 56.3 µM
- TGI [6]: 66.5 µM
- TGI [10]: > 100 µM
- TGI [7]: 37.2 µM
- TGI [8]: 67 µM
- TGI [9]: 48 µM

SMILES: CCCCCCCCCCCCCCC(=O)NC(CCCCNC(=O)C1CCCN1C(=O)C(CCCCN)NC(=O)C(CCCCN)NC(=O)C(CCCCN)NC(=O)C(CCCNC(=N)N)NC(=O)C(CCCCN)NC(=O)C(N)C(C)C)C(=O)CN1CCCC1C(=O)NCC(=O)NC(Cc1ccccc1)C(=O)N1CCCC1C(=O)NC(CO)C(=O)NC(Cc1ccc(O)cc1)C(=O)NC(CCCCN)C(=O)NC(CC(C)C)C(=O)NC(CCCNC(=N)N)C(=O)N1CCCC1C(=O)NCC(N)=O (stereo not given) (I: GFPSYKLRPG-NH2 / II: H-VKRKKKP; linker I:N-II:C via X23; configuration not given here)
- GI50 [1]: 19.2 µM
- TGI [1]: 43.1 µM
- GI50 [2]: 14 µM
- TGI [2]: 36.9 µM
- GI50 [3]: 2.66 µM
- TGI [3]: 15.6 µM
- GI50 [5]: 27.8 µM
- TGI [5]: 69.5 µM
- GI50 [6]: 24.7 µM
- TGI [6]: 77.8 µM
- GI50 [7]: 11.3 µM
- TGI [7]: 98.6 µM
- GI50 [8]: 15.9 µM
- TGI [8]: 44.3 µM

SMILES: CC1C(O)[C@@]2(OC[C@@]34C(=O)CC5(O)[C@H](CCC6Cc7nc8c(nc7C[C@]65C)CC5CC[C@@H]6C7=C[C@H]9O[C@@]%10(O[C@@](C)(CO)C[C@@H]%10O)C(C)[C@@]9(O)[C@]7(C)[C@@H](O)CC6[C@]5(C)C8)C3=CC[C@H]4C2C)OC1(C)C (stereo not given in full)
- TGI [1]: 0.494 µM
- TGI [2]: 0.977 µM
- TGI [3]: 0.361 µM
- TGI [4]: 0.379 µM
- TGI [5]: 0.0015 µM
- TGI [6]: 0.061 µM
- TGI [8]: 0.274 µM
